Data published in patent publication US20080194653A1, “Therapeutic Agent For Solid Tumor” (KYOWA HAKKO KOGYO CO., LTD., priority 2005, published 2008).
Counter-ions that a name gives are not always drawn.

What was measured:
[1] = system: human skin cancer SK-MEL-28 cells; test: Cell growth inhibition test against skin cancer cells (XTT); type: cell-based; settings: read-out: GI50 value (concentration of 50% growth inhibition)
Description: (§1) A549 cells (1000 cells/well), SK-OV-3 cells (2000 cells/well), or HCT 116 cells (1000 cells/well) were seeded in each well of 96-well plates (Nunc, catalog No. 167008), and cultured overnight. Test compounds diluted stepwise were added, and the cells were further cultured for 72 hours (final volume: 100 μL/well). Fifty μL XTT labeling mixture of Cell Proliferation Kit II (XTT) (Roche Diagnostics, catalog No. 1465015) was added to each well, and the plates were incubated at 37° C. After 1 to 3 hours, absorbance at 490 nm (reference wavelength: 655 nm) was measured with a plate reader (Molecular Device, SpectraMax 340PC^384). Growth ratios of the cells in the wells treated with the test compounds were calculated based on the growth ratio of the cells in the control well treated with solvent (dimethyl sulfoxide (DMSO)) for 72 hours, which was defined as 100%.
(§2) As cancer cell lines, human pancreatic cancer MIA PaCa-2 cells (JCRB No. 0070), human cervical cancer HeLa cells (ATCC No. CCL-2), human breast cancer MDA-MB-468 cells (ATCC No. HTB-132), human prostate cancer DU 145 cells (ATCC No. HTB-81), human skin cancer SK-MEL-28 cells (ATCC No. HTB-72), human head and neck cancer KB cells (JCRB No. 9027), human renal cancer 786-0 cells (ATCC No. CRL-1932), and human liver cancer Hep G2 cells (ATCC No. HB-8065) were used. The cells were cultured at 37° C. in a 5% carbon dioxide atmosphere (except for the human breast cancer MDA-MB-468 cells, which were cultured under the condition at 37° C.) by using the mediums mentioned below, respectively.
(§3) In the same manner as that in Test Example 1, the cells were seeded (500 to 4000 cells/well, respectively) in each well of 96-well plates (Nunc, catalog No. 167008), and growth ratios of the cells treated with test compounds were calculated. The measurement of absorbance was performed at 1.5 to 3 hours after the addition of the XTT labeling mixture.

[2] = system: human liver cancer Hep G2 cells; test: Cell growth inhibition test against liver cancer cells (XTT); type: cell-based; settings: HepG2, read-out: GI50 value (concentration of 50% growth inhibition)
Description: as §1, §2, §3

[3] = system: human colon cancer HCT 116 cells; test: Cell growth inhibition test against colon cancer cells (XTT); type: cell-based; settings: read-out: GI50 value (concentration of 50% growth inhibition), 72 hours
Description: (§4) As cancer cell lines, human lung cancer A549 cells (ATCC No. CCL-185), human ovarian cancer SK-OV-3 cells (ATCC No. HTB-77), and human colon cancer HCT 116 cells (ATCC No. CCL-247) were used. For the culture of A549 cells, Nutrient Mixture F-12K medium (Invitrogen, catalog No. 21127-022) containing 10% fetal bovine serum (Invitrogen, catalog No. 10099-141), 100 units/mL penicillin (Invitrogen, catalog No. 15140-122), and 100 μg/mL streptomycin (Invitrogen, catalog No. 15140-122) was used. For the culture of SK-OV-3 cells and HCT 116 cells, McCoy's 5A medium (Invitrogen, catalog No. 16600-082) containing 10% fetal bovine serum (Invitrogen, catalog No. 10099-141), 100 units/mL penicillin (Invitrogen, catalog No. 15140-122), and 100 μg/mL streptomycin (Invitrogen, catalog No. 15140-122) was used. The cells were cultured at 37° C. in a 5% carbon dioxide atmosphere.
as §1

[4] = biological target: T1, recombinant human Eg5 motor domain protein (Homo sapiens, UniProt P52732); test: Eg5 enzyme inhibition test (ATPase activity); type: biochemical; settings: for IC50: 30° C., 30 minutes, absorbance at 360 nm, read-out: Inhibition ratios (IC50) on the ATPase activity of Eg5
T1 construct: A plasmid expressing the motor domain of human Eg5 was constructed; made in house; host or cells: Escherichia coli BL21 (DE3)
T1 sequence (P52732 18-359 limits assumed): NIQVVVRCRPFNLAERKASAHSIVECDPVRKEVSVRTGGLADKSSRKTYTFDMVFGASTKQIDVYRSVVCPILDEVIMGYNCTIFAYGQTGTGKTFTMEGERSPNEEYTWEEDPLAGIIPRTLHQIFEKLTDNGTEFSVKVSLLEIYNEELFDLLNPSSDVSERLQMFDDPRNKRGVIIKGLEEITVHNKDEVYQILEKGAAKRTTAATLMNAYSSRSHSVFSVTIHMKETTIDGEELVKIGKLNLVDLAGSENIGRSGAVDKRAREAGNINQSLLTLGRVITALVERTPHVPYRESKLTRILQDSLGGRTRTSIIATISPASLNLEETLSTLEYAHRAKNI
Description: A recombinant human Eg5 motor domain protein was prepared by referring to the literature [Biochemistry, Vol. 35, p. […] A plasmid expressing the motor domain of human Eg5 was constructed, and transformed into Escherichia coli BL21 (DE3). The transformant was cultured at 25° C., and when the OD600 reached 0.74, isopropyl-β-D-thiogalactoside was added at a final concentration of 0.5 mmol/L. The transformant was further cultured for 4 hours, and then the culture medium was centrifuged to collect the cells. The cells were suspended in a buffer and ultrasonicated, and then the sonicated solution was centrifuged to recover the supernatant. The supernatant was purified by cation exchange column chromatography to obtain a partially purified sample. Furthermore, the partially purified sample was purified by gel filtration column chromatography to obtain a finally purified sample.
Measurement of the ATPase activity of Eg5 was carried out by referring to the literatures [EMBO Journal, Vol. 13, p. […] Solution A was dispensed into each well of a 96-well plate as 45 μL portions. Solution B was used to serially dilute a test compound. The diluted test compound solutions in a volume of 30 μL were mixed with Solution A added beforehand in each well of the 96-well plate to start the enzymatic reaction. The enzymatic reaction was performed at 30° C. for 30 minutes. […] The relative activity was calculated to calculate IC50 value.

[5] = system: human prostate cancer DU 145 cells; test: Cell growth inhibition test against prostate cancer cells (XTT); type: cell-based; settings: read-out: GI50 value (concentration of 50% growth inhibition)
Description: as §1, §2, §3

[6] = system: human pancreatic cancer MIA PaCa-2 cells; test: Cell growth inhibition test against pancreatic cancer cells (XTT); type: cell-based; settings: read-out: GI50 value (concentration of 50% growth inhibition)
Description: as §1, §2, §3

[7] = system: human cervical cancer HeLa cells; test: Cell growth inhibition test against cervical cancer cells (XTT); type: cell-based; settings: read-out: GI50 value (concentration of 50% growth inhibition)
Description: as §1, §2, §3

[8] = system: human lung cancer A549 cells; test: Cell growth inhibition test against lung cancer cells (XTT); type: cell-based; settings: read-out: GI50 value (concentration of 50% growth inhibition), 72 hours
Description: as §4, §1

[9] = system: human ovarian cancer SK-OV-3 cells; test: Cell growth inhibition test against ovarian cancer cells (XTT); type: cell-based; settings: read-out: GI50 value (concentration of 50% growth inhibition), 72 hours
Description: as §4, §1

[10] = system: human breast cancer MDA-MB-468 cells; test: Cell growth inhibition test against breast cancer cells (XTT); type: cell-based; settings: read-out: GI50 value (concentration of 50% growth inhibition)
Description: as §1, §2, §3

[11] = system: human renal cancer 786-0 cells; test: Cell growth inhibition test against renal cancer cells (XTT); type: cell-based; settings: read-out: GI50 value (concentration of 50% growth inhibition)
Description: as §1, §2, §3

[12] = system: human head and neck cancer KB cells; test: Cell growth inhibition test against head and neck cancer cells (XTT); type: cell-based; settings: read-out: GI50 value (concentration of 50% growth inhibition)
Description: as §1, §2, §3

Structure (SMILES)	melting point	GI50 [1]	GI50 [2]	GI50 [3]	Inhibition of the ATPase activity of Eg5 (in words) [4]	IC50 [4]	GI50 [5]	GI50 [6]	GI50 [7]	GI50 [8]	GI50 [9]	GI50 [10]	GI50 [11]	GI50 [12]
CC(=O)N1N=C(NC(=O)C(C)(C)C)SC1(CCNS(C)(=O)=O)c1ccccc1 (single isomer, unassigned; (-)) [Compound f, (−)-N-[4-Acetyl-5-(2-methanesulfonylaminoethyl)-5-phenyl-4,5-dihydro-1,3,4-thiadiazol-2-yl]-2,2-dimethylpropanamide]	187 to 190 °C	–	–	–	–	–	–	–	–	–	–	–	–	–
CCNCCS(=O)(=O)NCCC1(c2ccccc2)SC(NC(=O)C(C)(C)C)=NN1C(=O)C(C)(C)C (single isomer, unassigned) [Compound i, N-{4-(2,2-Dimethylpropionyl)-5-[2-(2-ethylaminoethanesulfonylamino)ethyl]-5-phenyl-4,5-dihydro-1,3,4-thiadiazol-2-yl}-2,2-dimethylpropanamide]	–	< 10 µM	< 10 µM	< 0.1 µM	inhibited the ATPase activity of Eg5 in a concentration-dependent manner	< 0.1 µM	< 10 µM	< 10 µM	< 10 µM	< 10 µM	< 10 µM	< 10 µM	< 10 µM	< 10 µM
CC(=O)N1N=C(N2CCCC2=O)SC1(CCNS(C)(=O)=O)c1ccccc1 (stereo not shown) [Compound g, N-{2-[3-Acetyl-5-(2-oxopyrrolidin-1-yl)-2-phenyl-2,3-dihydro-1,3,4-thiadiazol-2-yl]ethyl}methanesulfonamide]	137 to 140 °C	–	–	–	–	–	–	–	–	–	–	–	–	–
CC(C)(C)C(=O)NC1=NN(C(=O)C(C)(C)C)C(CN)(c2ccccc2)S1 (stereo not shown) [Compound j, N-[5-Aminomethyl-4-(2,2-dimethylpropionyl)-5-phenyl-4,5-dihydro-1,3,4-thiadiazol-2-yl]-2,2-dimethylpropanamide]	–	–	–	< 0.1 µM	–	–	–	–	–	< 10 µM	< 10 µM	–	–	–
CCNCCS(=O)(=O)NCCC1(c2ccccc2)SC(NC(=O)C(C)(C)C)=NN1C(=O)C(C)(C)C (racemic) [Compound 14, N-{4-(2,2-Dimethylpropionyl)-5-[2-(2-ethylaminoethanesulfonylamino)ethyl]-5-phenyl-4,5-dihydro-1,3,4-thiadiazol-2-yl}-2,2-dimethylpropanamide]	–	–	–	–	inhibited the ATPase activity of Eg5 in a concentration-dependent manner	–	–	–	–	–	–	–	–	–
CC(C)(C)C(=O)N1N=C(N2CCCC2=O)SC1(CCNS(C)(=O)=O)c1ccccc1 (single isomer, unassigned; (-)) [Compound c, (−)-N-{2-[3-(2,2-Dimethylpropionyl)-5-(2-oxopyrrolidin-1-yl)-2-phenyl-2,3-dihydro-1,3,4-thiadiazol-2-yl]ethyl}methanesulfonamide]	107 to 110 °C	–	–	–	–	–	–	–	–	–	–	–	–	–
CCC(=O)N1N=C(NC(=O)C(C)(C)C)SC1(CCNS(C)(=O)=O)c1ccccc1 (single isomer, unassigned; (-)) [Compound b, (−)-N-[5-(2-Methanesulfonylaminoethyl)-5-phenyl-4-propionyl-4,5-dihydro-1,3,4-thiadiazol-2-yl]-2,2-dimethylpropanamide]	–	< 10 µM	–	< 0.1 µM	inhibited the ATPase activity of Eg5 in a concentration-dependent manner	< 0.1 µM	< 10 µM	< 10 µM	< 10 µM	< 10 µM	< 10 µM	< 10 µM	< 10 µM	< 10 µM
CC(C)(C)C(=O)NC1=NN(C(=O)C(C)(C)C)C(CN)(c2ccccc2)S1 (stereo not shown) (as salt: hydrochloride) [Compound j, N-[5-Aminomethyl-4-(2,2-dimethylpropionyl)-5-phenyl-4,5-dihydro-1,3,4-thiadiazol-2-yl]-2,2-dimethylpropanamide]	175 to 182 °C	–	–	–	–	–	–	–	–	–	–	–	–	–
CC(=O)N1N=C(N2CCCCC2=O)SC1(CCNS(C)(=O)=O)c1ccccc1 (single isomer, unassigned; (-)) [Compound h, (−)-N-{2-[3-Acetyl-5-(2-oxopiperidino)-2-phenyl-2,3-dihydro-1,3,4-thiadiazol-2-yl]ethyl}methanesulfonamide]	169 to 171 °C	< 10 µM	–	< 0.1 µM	inhibited the ATPase activity of Eg5 in a concentration-dependent manner	< 0.1 µM	< 10 µM	< 10 µM	< 10 µM	< 10 µM	< 10 µM	< 10 µM	< 10 µM	< 10 µM
CCNCCS(=O)(=O)NCC1(c2ccccc2)SC(NC(=O)C(C)(C)C)=NN1C(=O)C(C)(C)C (single isomer, unassigned; (-)) [Compound l, (−)-N-[4-(2,2-Dimethylpropionyl)-5-(2-ethylaminoethanesulfonylamino-methyl)-5-phenyl-4,5-dihydro-1,3,4-thiadiazol-2-yl]-2,2-dimethylpropanamide]	–	< 10 µM	< 10 µM	< 0.1 µM	inhibited the ATPase activity of Eg5 in a concentration-dependent manner	< 0.1 µM	< 10 µM	< 10 µM	< 10 µM	< 10 µM	< 10 µM	–	< 10 µM	< 10 µM
